Laboratory results published in patent US10301306B2, “Substituted dihydro-1H-pyrrolo[3,2-c]pyridin-4(5H)-ones as RIPK3 inhibitors” (BRISTOL-MYERS SQUIBB COMPANY, priority 2014, dated 2019).

Molecular target: RIPK3 (Homo sapiens (Human), UniProt Q9Y572)
Experiment: RIPK3 HTRF Kinase Assay
Assay type: binding
Conditions: RIPK3 1 nM; HTRF probe 23 nM; 60 min at room temperature; read-out: IC50 for Inhibition of RIPK3

Chain of RIPK3 (Q9Y572 whole entry, species assumed): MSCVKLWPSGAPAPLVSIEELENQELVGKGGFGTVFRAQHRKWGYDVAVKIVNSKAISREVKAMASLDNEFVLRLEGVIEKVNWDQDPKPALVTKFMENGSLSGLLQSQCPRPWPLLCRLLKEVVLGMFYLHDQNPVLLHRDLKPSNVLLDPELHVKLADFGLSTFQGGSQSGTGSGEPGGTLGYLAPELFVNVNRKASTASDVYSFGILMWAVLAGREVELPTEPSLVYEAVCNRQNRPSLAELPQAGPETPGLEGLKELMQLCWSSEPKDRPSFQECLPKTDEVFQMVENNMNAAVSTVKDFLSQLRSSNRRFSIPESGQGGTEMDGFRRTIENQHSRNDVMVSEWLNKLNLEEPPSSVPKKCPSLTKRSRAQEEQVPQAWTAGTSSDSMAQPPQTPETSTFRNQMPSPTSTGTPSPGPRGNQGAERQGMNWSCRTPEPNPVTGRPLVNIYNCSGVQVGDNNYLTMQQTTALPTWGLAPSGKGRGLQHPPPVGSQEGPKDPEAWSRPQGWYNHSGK

Compound	IC50 [nM]
CC(C)(C)Cn1c2c(c(-c3ccc(F)cc3)c1-c1ccncc1)C(=O)NCC2 [Example 61]	100 to 15000
CCn1c2c(c(-c3ccc(F)cc3)c1-c1ccncc1)C(=O)NCC2 [Example 62]	100 to 15000
CCC(C)n1c2c(c(-c3ccc(F)cc3)c1-c1ccncc1)C(=O)NCC2 (centres unmarked) [Example 63]	100 to 15000
O=C1NCCc2c1c(-c1ccc(F)cc1)c(-c1ccncc1)n2Cc1ccc(F)cc1F [Example 64]	< 30
Cc1cc(Cn2c3c(c(-c4ccc(F)cc4)c2-c2ccncc2)C(=O)NCC3)n(C)n1 [Example 65]	< 30
O=C1NCCc2c1c(-c1ccc(F)cc1)c(-c1ccncc1)n2Cc1ccncc1 [Example 66]	< 30
COc1cc(C(F)(F)F)ccc1Cn1c2c(c(-c3ccc(F)cc3)c1-c1ccncc1)C(=O)NCC2 [Example 67]	31 to 100
N#Cc1ccccc1Cn1c2c(c(-c3ccc(F)cc3)c1-c1ccncc1)C(=O)NCC2 [Example 68]	< 30
O=C1NCCc2c1c(-c1ccc(F)cc1)c(-c1ccncc1)n2CCCO [Example 69]	31 to 100
O=C1NCCc2c1c(-c1ccc(F)cc1)c(-c1ccncc1)n2CC(=O)N1CCCC1 [Example 70]	31 to 100
O=C1NCCc2c1c(-c1ccc(F)cc1)c(-c1ccncc1)n2Cc1c(F)cc(F)cc1F [Example 71]	< 30
O=C1NCCc2c1c(-c1ccc(F)cc1)c(-c1ccncc1)n2Cc1ccncn1 [Example 72]	100 to 15000
O=C1NCCc2c1c(-c1ccc(F)cc1)c(-c1ccncc1)n2Cc1c(F)cccc1C(F)(F)F [Example 73]	< 30
O=C1NCCc2c1c(-c1ccc(F)cc1)c(-c1ccncc1)n2Cc1ccc(Cl)cc1F [Example 74]	< 30
CC(C)(C)CCn1c2c(c(-c3ccc(F)cc3)c1-c1ccncc1)C(=O)NCC2 [Example 75]	< 30
O=C1NCCc2c1c(-c1ccc(F)cc1)c(-c1ccncc1)n2Cc1ccccn1 [Example 76]	100 to 15000
N#Cc1cccc(F)c1Cn1c2c(c(-c3ccc(F)cc3)c1-c1ccncc1)C(=O)NCC2 [Example 77]	< 30
O=C1NCCc2c1c(-c1ccc(F)cc1)c(-c1ccncc1)n2CC1CCCC1 [Example 78]	< 30
Cc1cc(Cn2c3c(c(-c4ccc(F)cc4)c2-c2ccncc2)C(=O)NCC3)no1 [Example 79]	31 to 100

Compound	IC50 [nM]
Cn1ccnc1Cn1c2c(c(-c3ccc(F)cc3)c1-c1ccncc1)C(=O)NCC2 [Example 80]	100 to 15000
Cc1nc(Cn2c3c(c(-c4ccc(F)cc4)c2-c2ccncc2)C(=O)NCC3)no1 [Example 81]	31 to 100
O=C1NCCc2c1c(-c1ccc(F)cc1)c(-c1ccncc1)n2CCO [Example 82]	100 to 15000
CC(C)NC(=O)Cn1c2c(c(-c3ccc(F)cc3)c1-c1ccncc1)C(=O)NCC2 [Example 83]	100 to 15000
N#Cc1cc(F)c(Cn2c3c(c(-c4ccc(F)cc4)c2-c2ccncc2)C(=O)NCC3)c(F)c1 [Example 84]	< 30
O=C(Nc1cc(-c2c(-c3ccc(F)cc3)c3c(n2CC2CCOCC2)CCNC3=O)ccn1)c1ccncc1 [Example 85]	100 to 15000
O=C(Nc1cc(-c2c(-c3ccc(F)cc3)c3c(n2CC2CCOCC2)CCNC3=O)ccn1)c1ccccc1 [Example 86]	100 to 15000
O=C1NCCc2c1c(-c1ccc(F)cc1)c(-c1ccnc(NC(=O)C3CC3)c1)n2CC1CCOCC1 [Example 87]	31 to 100
CC(C)C(=O)Nc1cc(-c2c(-c3ccc(F)cc3)c3c(n2CC2CCOCC2)CCNC3=O)ccn1 [Example 88]	100 to 15000
COc1ccc(C(=O)Nc2cc(-c3c(-c4ccc(F)cc4)c4c(n3CC3CCOCC3)CCNC4=O)ccn2)cc1 [Example 89]	100 to 15000
CCC(=O)Nc1cc(-c2c(-c3ccc(F)cc3)c3c(n2CC2CCOCC2)CCNC3=O)ccn1 [Example 90]	100 to 15000
CC(C)OC(=O)Nc1cc(-c2c(-c3ccc(F)cc3)c3c(n2CC2CCOCC2)CCNC3=O)ccn1 [Example 91]	100 to 15000
CS(=O)(=O)Nc1cc(-c2c(-c3ccc(F)cc3)c3c(n2CC2CCOCC2)CCNC3=O)ccn1 [Example 92]	100 to 15000
CC(C)CC(=O)Nc1cc(-c2c(-c3ccc(F)cc3)c3c(n2CC2CCOCC2)CCNC3=O)ccn1 [Example 93]	100 to 15000
CCCC(=O)Nc1cc(-c2c(-c3ccc(F)cc3)c3c(n2CC2CCOCC2)CCNC3=O)ccn1 [Example 94]	100 to 15000
CCOC(=O)Nc1cc(-c2c(-c3ccc(F)cc3)c3c(n2CC2CCOCC2)CCNC3=O)ccn1 [Example 95]	31 to 100
CCNC(=O)Nc1cc(-c2c(-c3ccc(F)cc3)c3c(n2CC2CCOCC2)CCNC3=O)ccn1 [Example 97]	100 to 15000
CC(=O)Nc1cc(-c2c(-c3ccc(F)cc3)c3c(n2Cc2ccc(F)c(C#N)c2)CCNC3=O)ccn1 [Example 99]	31 to 100
CC(=O)Nc1cc(-c2c(-c3ccc(F)cc3)c3c(n2Cc2ccc(F)cc2C#N)CCNC3=O)ccn1 [Example 100]	< 30
